Laboratory results: patent US8283473B2, “Platinum complex compound and utilization of the same” (Yakult Honsha Co., Ltd, priority 2008, dated 2012)

tested on: H460 non-small cell lung cancer cells; test: In vitro cytotoxicity (inhibitory activity on cancer cell proliferation), MTT formazan absorbance assay; type: cell-based; conditions: Table 1; 24 hours incubation at 37° C., then 4 hours with tetrazolium dye; absorbance at 550 nm; read-out: IC50 value of platinum complex compounds for H460 non-small cell lung cancer cells
Description: <Investigation of the In Vitro Cytotoxicity (Inhibitory Activity on Cancer Cell Proliferation) for H460 Non-Small Cell Lung Cancer Cells>
On the day prior to the day of agent addition, H460 non-small cell lung cancer cells were plated onto 24-well flatbottom microplates at 12,000 to 20,000 cells/well. An aqueous solution was prepared for each sample (refer to the sample numbers in Table 1) by dissolving the sample in Q-H2O water to a concentration of 100 μM. These aqueous solutions were diluted to provide solutions with various concentrations, and 1 mL of the particular dilution was introduced into each well. After incubation of the microplate for 24 hours at 37° C., […] a 2,5-diphenyl-3-(4,5-dimethylthiazol-2-yl)tetrazolium bromide (MIT) solution (5 mg/mL) was added to each well and incubation was continued for an additional 4 hours at 37° C. 200 μL dimethyl sulfoxide (DMSO) was added to each well in order to dissolve the formazan produced and precipitated as a result of reduction of the MIT. The absorbance at 550 nm of each well was measured using a microplate reader.
The absorbance of each well was measured three times and each experiment was repeated at least three times. The IC50 value was calculated as the concentration that provided a 50% formazan production with reference to the control (no agent addition).

Work on `N.N.[Cl][Pt][Cl]` [sample 3, cis-diamminedichloridoplatinum(II)] yielded an IC50 of 23 µM.

same assay, conditions: Table 2; same procedure, 24 hours incubation at 37° C.; absorbance at 550 nm; read-out: IC50 value of platinum complex compounds for H460 non-small cell lung cancer cells

Going from `O=[N+]([O-])O.O=[N+]([O-])[O-].[NH2][Pt]1([NH2])[O][Pt]([NH2])([NH2])[n+]2ncc[n]21` [sample 9, [{cis-Pt(NH3)2}2(μ-OH)(μ-1,2,3-triazolato-N1,N2)](NO3)2] to “[{cis-Pt(NH3)2}2(μ-OH)(μ-5-methyltetrazolato-N2,N3)](NO3)2 [sample 6]”, the IC50 falls from 62 µM to 20 µM (3.1-fold). The second is the more potent here.

Going from “[{cis-Pt(NH3)2}2(μ-OH)(μ-tetrazolato-N2,N3)](ClO4)2 [sample 5]” to “[{cis-Pt(NH3)2}2(μ-OH)(μ-tetrazolato-5-ethylacetate-N2,N3)](NO3)2 [sample 7]”, the IC50 rises from 8.3 µM to 22 µM (2.7-fold). The first is the more potent here.

`N.N.[Cl][Pt][Cl]` [sample 3, cis-diamminedichloridoplatinum(II)] and “[{cis-Pt(NH3)2}2(μ-OH)(μ-tetrazolato-N1,N2)](ClO4)2 [sample 4]” are within 1.5-fold of each other in IC50: 23 µM for the first, 21 µM for the second.

“[{cis-Pt(NH3)2}2(μ-OH)(μ-pyrazolato)](NO3)2 [sample 8]” was tested, and the IC50 was over 100 µM.
